Source: publication PMC5449454, “Anti-Double-Stranded DNA IgG Participates in Renal Fibrosis through Suppressing the Suppressor of Cytokine Signaling 1 Signals” (Frontiers in Immunology, 2017)
Entries after “also recorded” stand apart in the source; their conditions may differ.

Experiments:
[1] = system: anti-dsDNA IgG binding to dsDNA antigen; assay: Inhibition ELISA, anti-dsDNA IgG binding to dsDNA antigen; set-up: species or system murine; details: anti-dsDNA IgG 2 µg/ml pre-incubated with serially diluted peptide (0.04 to 80 µg/ml); three independent experiments
Description: Common ELISAs (for binding to dsDNA or peptide) and inhibition ELISAs were performed as previously described ([8], [35]). Briefly, the KIR ELISA was carried out by adding biotinylated KIR peptide (DTHFRTFRSHSDYRRI, 5 µg/ml) to streptavidin-coated 96-well plates. For inhibition with KIR (or ALW) peptide, anti-dsDNA IgG (2 µg/ml) was pre-incubated with serially diluted peptide (from 0.04 to 80 µg/ml), and then transferred to antigen-coated 96-well plates. Alkaline phosphatase-conjugated goat anti-mouse IgG (2 µg/ml; Southern Biotech) was used as secondary antibody. Similarly, for inhibition with anti-dsDNA IgG, the FITC-labeled JAK2 loop peptide (LPQDKEYYKVKEP, 0.2 µg/ml) was pre-incubated with serially diluted anti-dsDNA IgG (from 0.02 to 20 µg/ml) before transfer to KIR-coated plates, which were detected for fluorescein intensity under a Perkin Elmer Reader (Winpact Scientific, Irvine, CA, USA). Cell surface ELISA was performed by growing mesangial cells in 96-well plates ([8], [35]). All peptides were synthesized by Sangon Biotech Company (Shanghai, China).

[2] = system: anti-dsDNA IgG; assay: MALDI-TOF MS, catalysis of peptide by anti-dsDNA IgG; set-up: species or system murine; details: peptide 2 µg/ml with IgG (molar ratio = 1:5), 37°C, 30 min, triplicate, versus L-form ALW
Description: Matrix-assisted laser desorption/ionization–time of flight mass spectrometry was performed for identifying the sequences of peptide fragments. As described previously ([36]), an ABI 4800 Analyzer (AB Science, Foster City, CA, USA) was used for such analysis. The ALW (L-form or D-form) and KIR peptides (2 µg/ml) were mixed with anti-dsDNA IgG or control IgG (molar ratio = 1:5), respectively. The mixtures were incubated at 37°C for 30 min. Then, these samples were diluted in distilled water (1:100) and then mixed with the α-cyano-4-hydroxycinnamic acid matrix at a ratio of 1:1. Samples in triplicate were then loaded to the MALDI target. Mass spectrum was produced on 80 individual spectra of each spot.

[3] = system: mesangial cells; assay: Cell viability (PrestoBlue), mesangial cells; format: cell-based, murine; details: D-form ALW 1 µg/ml, 2 days
Description: By using a HiTrap purification kit (GE Healthcare, Port Washington, NY, USA) ([8]), anti-dsDNA IgG was purified from the culture supernatants of murine WJ31 hydridoma clone (IgG2a; Jieqing Biotech). Control murine IgG (IgG2a; Jieqing Biotech) was verified by enzyme-linked immunosorbent assay (ELISA) to determine that there was no binding to DNA antigen (data not shown). Cells were starved routinely before the 2-day stimulation of anti-dsDNA IgG or control IgG (2 µg/ml). In some experiments, mesangial cells were stimulated with anti-dsDNA IgG (2 µg/ml) that was premixed with D-form (ALWPPNLHAWVP) or scrambled (PLPHNPWVLAAW) ALW peptide (1 µg/ml). The cell viability of three types of cells was measured using PrestoBlue viability reagent (Life Technologies, Carlsbad, CA, USA).
Mesangial Glomerular Tubular cells endothelial epithelial
Supplementary Figure S7. Cell viability assays of kidney cells. (A) Murine cells were cultured in vitro, and received control or anti-dsDNA IgG stimulation (2 µg/ml, 2 days). (B) Similarly, these cells were also stimulated with scrambled or D-form ALW peptide (1 µg/ml, 2 days). The cell viability was measured using PrestoBlue viability reagent. Data were from three independent experiments. Data points and error bars […]
(also on this page, place not known: µ g/ml,2 µ g/ml,2 Cell viability (%) Cell viability (%))

[4] = system: kidneys of SCID mice; assay: Renal mRNA levels by real-time PCR, SCID mice; format: in vivo; details: i.v.
From the text: (§1) Renal biopsies were obtained from patients with LN (n = 7), who had serum positivity of anti-dsDNA IgG (Table S1 in Supplementary Material). The diagnosis of LN was made based on the histological features of renal biopsies. For normal human controls, sera and non-lesional tissues were taken from patients (n = 5) who underwent surgical nephrectomy due to renal cell carcinoma or renal rupture (Table S1 in Supplementary Material). There was no statistical difference in term of age between the LN patients and the controls (p > 0.05). […] The MRL/lpr and MRL/MpJ mice (female, 12 or 24 weeks old, n = 5 each group) as well as SCID mice (female, 8 weeks old, n = 5 each group) were bred in the animal facility of Xi’an Jiaotong University Health Science Center. Urine, sera, and renal tissues were harvested from MRL/lpr and MRL/MpJ mice. Proteinuria was quantitated by the Coomassie brilliant blue method ([32]). All data about MRL/lpr and MRL/MpJ mice referred to that at age of 24 weeks unless otherwise noted. These SCID mice received intravenous injections of anti-dsDNA or control IgG at a dose of 100 µg twice weekly, which lasted for 4 weeks (n = 5 each group). Then, both serum and kidney samples were collected from SCID mice. This study was carried out in accordance with the recommendations of the guidelines of the Hospital Research Ethics Committee with written informed consent from all subjects. All subjects gave written informed consent in accordance with the Declaration of Helsinki. The protocol was approved by the Hospital Research Ethics Committee.
As previously described ([8]), total RNA was extracted from fresh tissues or cultured cells, followed by reverse transcription. The 7900HT Fast PCR System (Applied Biosystems, Carlsbad, CA, USA) was used for PCR, and SYBR Green Master Mixes (Invitrogen, Grand Island, NY, USA) was used as fluorescent dye. The sequences of primers (Jieqing Biotech) are listed in Table S2 in Supplementary Material.

[5] = system: glomeruli of SCID mice; assay: Glomerular IgG deposition (IHC and IF), SCID mice; format: in vivo; details: i.v., anti-dsDNA IgG mixed with D-form ALW before injection, n = 5, versus anti-dsDNA IgG alone
From the text: as §1, with “All subjects gave written informed consent in accordance with the Declaration of Helsinki. The protocol was approved by the Hospital Research Ethics Committee.” left out

[6] = D-form ALW plus anti-dsDNA IgG, n = 5, versus anti-dsDNA IgG alone
[7] = anti-dsDNA IgG pre-mixed with D-form ALW, n = 5

Sequence: ALWPPNLHAWVP [D-form ALW, ALW peptide with two terminal residues A and P replaced with D-form ones]
- inhibition of anti-dsDNA IgG binding to DNA antigen [1]: inherited the inhibitory property of the (natural) ALW
- resistance to catalysis by anti-dsDNA IgG [2]: enhanced resistance to catalysis
- cell viability [3]: no changes
- renal JAK2 mRNA level, ALW plus anti-dsDNA IgG [4, 6]: reduced
- renal SOCS1 mRNA level, ALW plus anti-dsDNA IgG [4, 6]: not affected
- renal STAT1 mRNA level, ALW plus anti-dsDNA IgG [4, 6]: reduced
- renal PDGFB mRNA level, ALW plus anti-dsDNA IgG [4, 7]: substantial decrease
- renal TGF-β1 mRNA level, ALW plus anti-dsDNA IgG [4, 7]: substantial decrease
- renal TWEAK mRNA level, ALW plus anti-dsDNA IgG [4, 7]: substantial decrease
- glomerular IgG deposition, ALW plus anti-dsDNA IgG [5]: less IgG deposition; also recorded: significant reduction
